Measured values taken from US5026694A, “Platinum complexes with one radiosensitizing ligand” (priority 1989, dated 1991).

Key:
[1] = test system: CHO cells; assay: Radiosensitization of CHO cells (enhancement ratio); format: cell-based, Chinese hamster; settings: for enhancement ratio (ER): 100 mM/dm^3, cis configuration or ligand alone, dose to reduce survival to 1%; for ER: Table 1
Protocol: Radiosensitization of CHO cells was determined as described by Moore, B. A., et al, sucra, at 4° C., except that the cells were incubated with complex for 1 hr at 37° C. to allow binding to DNA prior to radiation. A Picker X-ray source (250 kVp, 1.7 mm Cu) was used. As with the toxicity studies, cells were carried, irradiated, and plated in MEM a medium with 10% fetal calf serum, and plating efficiencies were determined on the seventh day after plating. Enhancement ratios (ER) were calculated from the doses required to reduce survival to 1%.

[2] = test system: Chinese hamster ovary (CHO) cells; assay: Toxicity in hypoxic and aerated CHO cells (plating efficiency/survival); format: cell-based; design: plating efficiency / effect on plating efficiency: dose or concentration left out as unconfirmed; settings: for order of toxicity of free ligand: free ligands
Protocol: The toxicity of the invention compounds with respect to Chinese hamster ovary (CHO) cells was compared in air and in nitrogen induced hypoxia as described by Moore, B. A., et al, Radiation Research (1976) 67:459-478. The radiosensitizing ligands, or cis or transdichlorodiamine platinum II (DDP) or the . bisubstituted platinum complexes, PtCl2 (L)2, were used as controls.
The cells were carried in MEM a medium with 10% fetal calf serum, and plating efficiencies were determined on the seventh day after plating.
In similar experiments at 100 mM/dm^3, MISO and trans-[PtCl2 (miso)2 ] show no toxicity. Survival rates for trans-DDP and monoammine were 0.2 and 0.1 respectively.
Using 100 mM levels, mono-6NQ caused plating efficiency to drop to 0 after an hour, while 6NQ had no effect after 3 hours.

[3] = test system: cells; settings: cited from earlier work
[4] = test system: tumors; settings: cited from earlier work
[5] = test system: L1210 cells, cDDP resistant line; assay: Toxicity in cisDDP-resistant L1210 cells (cross-resistance); format: cell-based; settings: for Ratio (ID50 cDDP resistant/cDDP sensitive): L1210 cells
From the text: (§1) Patients become resistant to cisplatin (cisDDP) and to many related drugs.

[6] = test system: L1210 cells, cDDP sensitive line; assay: Toxicity in cisDDP-sensitive L1210 cells; format: cell-based; settings: read-out: ID50 (the source's name)
From the text: as §1

[7] = test system: cancer; settings: cited from earlier work
[8] = test system: plasmid pSV2-gpt DNA; assay: Binding to DNA by inhibition of restriction enzyme (BamHI) cleavage of plasmid DNA; format: biochemical; design: inhibition of BamHI cleavage / inhibition of cleavage with BamHI: unit of the concentration uncertain
Protocol: The ability of the invention compounds to bind DNA was tested using an assay which is based on inhibition of the ability of restriction enzymes to cleave the complexed DNA. The substrate in the assay was the plasmid pSV2-gpt (Mulligan, R., et al Science (1980) 209:1422-1427). After growth in E. coli. this 5.2 kb plasmid was extracted and linearized using PvuII. Cleavage of the extracted linearized segment by BamHI or EcoRI results in two fragments per enzyme. Inhibition of this cleavage by test compounds provides an assay method for binding of the test compounds.
In the assay, DNA (20 mg/ml) in 100 mM Tris-HCl, 1 mM EDTA, pH 8, was treated with the test compounds at approximately 100 mM for 1 hr at 37° C. Unbound drug was then removed using a G-50 Sephadex spin column (Pharmacia).
To 30 mM of the treated DNA, 23.5 ml of a buffer solution containing 0.33 M Tris-acetate, pH 7.9, 0.66 M potassium acetate, 0.10 M dithiothreitol, and 1 mg/ml BSA, along with 10 units of enzyme, were added. Enzyme activity was stopped using 1 ml 0.5 M EDTA after 30 min at 37° C. Tracking 0.25% bromophenol blue, 0.25% xylene cyanol in 30% glycerol water) was added, and 10 ml of the resulting solution loaded onto a 1% agarose gel made with E buffer (0.04 M Tris, 5 mM sodium acetate; 1 mM EDTA, pH 7.8) and subjected to horizontal electrophoresis. The slab gel was stained with aqueous ethidium bromide solution (1 ng/ml) and photographed under UV light.
Inhibition of the restriction enzyme cleavage was assessed qualitatively by noting the relative proportion of bands, or quantitatively by analyzing densitometric scans of the negatives of the recorded pictures.

[9] = test system: DNA of CHO cells; assay: Platinum bound to DNA extracted from whole CHO cells, atomic absorption; format: cell-based, Chinese hamster; design: dose or concentration left out as unconfirmed; settings: 1-2 hr exposure
From the text: Though the results of this assay were erratic they establish that the Pt complexes cross cell membranes and bind to DNA in mammalian cells.

O=[N+]([O-])c1c[nH]cn1 [4-nitroimidazole]
enhancement ratio (ER) [1]: 1.10 | order of toxicity of free ligand [2]: 4-nitroimidazole f MISO f ANT f METRO

O=[N+]([O-])c1ccc2ncccc2c1 [6NQ, 6-nitroquinoline]
effect on plating efficiency ([2]; after 3 hours): no effect

Nc1ncc([N+](=O)[O-])s1 [ANT, 2-amino-5-nitrothiazole]
enhancement ratio (ER) [1]: 1.25 | order of toxicity of free ligand [2]: 4-nitroimidazole f MISO f ANT f METRO

Cc1ncc([N+](=O)[O-])n1CCO [METRO, 1,2-hydroxyethyl-2-methyl-5-nitroimidazole]
sensitizing cells to radiation treatment in clinical trials [3]: beneficial effects in sensitizing cells to radiation treatment | order of toxicity of free ligand [2]: 4-nitroimidazole f MISO f ANT f METRO

COCC(O)Cn1ccnc1[N+](=O)[O-] (stereo not shown) [MISO]
ER ([1]; 100 mmol/dm^3): 1.3 | ER ([1]; 250 mmol/dm^3): 1.4 | sensitization in oxygen ([1]; in oxygen): no sensitization | sensitizing cells to radiation treatment in clinical trials [3]: beneficial effects in sensitizing cells to radiation treatment | toxicity ([2]; 100 mM/dm^3): no toxicity | order of toxicity of free ligand [2]: 4-nitroimidazole f MISO f ANT f METRO

O=[N+]([O-])c1nccn1CC(O)CN1CC1 (stereo not shown) [RSU-1069]
side effects ([4]; chemotherapy): high incidence of side effects | amount of RSU-1069 required for effectiveness with 5-hydroxytryptamine or hydralazine ([4]; coadministration of 5-hydroxytryptamine or hydralazine): can be reduced by administration of 5-hydroxytryptamine or hydralazine | enhancement of effect of RSU-1069 by hydralazine ([4]; hydralazine 5 mg/kg or 30 mg/kg, RSU-1069 0.1 mg/g IP, within three hours): enhance the effect of RSU-1069

O=C(Cn1ccnc1[N+](=O)[O-])NCCO [SR-2508]
sensitizing cells to radiation treatment in clinical trials [3]: beneficial effects in sensitizing cells to radiation treatment

Cc1n(CCO)c([N+](=O)[O-])c[n+]1[Pt-2]([NH3+])([Cl])[Cl] [cis mono METRO]
Ratio (ID50 cDDP resistant/cDDP sensitive) [5]: 5 | IC50 [6]: 4.4 mM

N.N.[Cl][Pt][Cl] [cis-DDP, cis[PtCl2 (NH3)2]]
antineoplastic activity ([7]; literature, 1969): shown to have antineoplastic activity | usefulness in treatment of cancer ([7]; testicular cancer versus other sites): useful in the treatment of testicular cancer, but less so in treatment of cancers at other sites | IC50 ([5]; L1210, cDDP resistant line, read-out: ID50 (the source's name)): 5 mM | Ratio (ID50 cDDP resistant/cDDP sensitive) [5]: 50 | effectiveness in sensitive versus resistant cells ([5]; more effective in "sensitive" cells): 50 × | ER ([1]; 10 mmol/dm^3): 1.3 | inhibition of BamHI cleavage ([8]; 40 (unit uncertain)): 30% | binding to DNA as indicated by enzyme inhibition ([8]; 1 hr at 37° C.): binds much more strongly than the monoammine | platinum bound to the extracted DNA [9]: 6 ng Pt/10^6 cells | IC50 [6]: 0.1 mM | toxicity compared with the compounds of the invention ([2]; 100 mM/dm^3 experiments): somewhat more toxic than the compounds of the invention | approximate order of hypoxic toxicity of platinum complexes ([2]; hypoxia): cis-DDP ff trans-mono-MISO f monoammine Z cis-mono-MISO f trans-DDP f mono-METRO Z mono-NI f mono-ANT
